According to paper PMC12431657, “Discovery and mechanistic insights of dibenzoylmethane as a broad spectrum inhibitor of coronavirus” (PLOS Pathogens, 2025):
Values joined by “and” are separate entries in the source; they are usually repeats but may differ in a detail not shown here. Identical values can stand only once. Like-named read-outs stand apart in the source and are kept apart here.

Columns and labels:
HCoV-OC43 [1] = test: In vivo efficacy of DBM against HCoV-OC43 in suckling mice (body weight, viral RNA copies, immunofluorescence, H&E); design: species or system BALB/c suckling mice; settings: for Viral RNA copies (log scale), Brain / Viral RNA copies (log scale), Kidney / Viral RNA copies (log scale), Lung / Viral RNA copies (log scale), Spinal Cord: one value per mouse
Procedure: Next, we characterized the therapeutic efficacy of the DBM in vivo. In this experiment, randomized 5–6-day-old suckling BALB/c mice were orally treated with DBM at concentrations of 500, 200, and 100 mpk 2 hours after being intranasally challenged with HCoV-OC43. Menstruum and VV116 were used as negative and positive controls, respectively. All the mice were sacrificed on Day 5 for organ and sample collection (Fig 4A). The body weight changes of the mice were continuously monitored during the trial. Infection with HCoV-OC43 led to body weight loss in the vehicle-treated mice on Day 5 (Fig 4B). […] The number of viral RNA copies from the brain, spinal cord, lungs, and kidneys were analysed via qRT-PCR, which targeted the HCoV-OC43 nucleocapsid gene sequence. On Day 5, the number of viral RNA copies in the vehicle-treated group reached approximately 10^12 copies in the brain, 10^9 copies in the spinal cord, 10^8 copies in the lungs, and 10^6 copies in the kidney (Fig 4C). In the mice treated with DBM at 500 mpk, the number of viral RNA copies within these organs and tissues was reduced by 1–3 logs compared with the vehicle-treated group. […] Sections of mouse brains, spinal cords, lungs, and kidneys were subjected to immunofluorescence staining with antibodies targeting HCoV-OC43 nucleocapsid proteins.
Fig 4 In vivo antiviral efficacy of DBM in 5-day-old BALB/c suckling mice infected with HCoV-OC43. A) Schematic of the experimental design for evaluating DBM in suckling mice. Each group consisted of 5-6 suckling mice. The schematic was created by the authors using Adobe Illustrator 2022. B) Body weight changes of mice during the experiment. Body weights were recorded daily and all mice were euthanised on the fifth day after infection. C) Viral RNA copies in the brains, spinal cords, lungs, and kidneys of mice collected on Day 5. After grinding and centrifuging the samples with DMEM, viral copies from the supernatants were tested by qRT-PCR. D) Viral titres in homogenised organs and tissues collected from mice on Day 5. E) Immunofluorescence staining of brain and lung sections from mice treated with different regimens. HCoV-OC43 nucleocapsid proteins were detected by immunofluorescence (green). Cell nuclei were stained with DAPI (blue). Data were statistically analyzed with Student’s T test. *: p ≤ 0.05, **: p ≤ 0.01, ***: p ≤ 0.001, ****: p ≤ 0.0001; ns, not significant. The experiments were repeated three times independently with similar results. […] No numeric values are printed in any panel, and nothing was read off the bars, points or curves.
BALB/c mice were maintained and bred in a specific-pathogen-free (SPF) environment at the Laboratory Animal Center of Wuhan Institute of Virology, CAS. Pregnant mice with the same expected delivery date were acclimated in individually ventilated cages under standard conditions within an SPF environment. Food and water were available ad libitum. The mice were anaesthetized by isoflurane inhalation before any operation that may have caused potential discomfort. Before the experiment, suckling mice were randomly allocated into 6 distinct groups, namely, the healthy group, the vehicle group, the groups receiving DBM at 500 mg/kg (mpk) orally quaque die (QD), 200 mpk QD, and 100 mpk QD, and the group receiving VV116 at 25 mpk orally QD. Each group was comprised of 5–6 suckling mice. On the initiation day (Day 0) of the experiment, 5–6-day-old BALB/c suckling mice were intranasally infected with 1 × 10^4 TCID50 of HCoV-OC43. Two hours postinoculation, the mice were orally treated with either a placebo or varying doses of the drugs on the basis of their respective groupings as outlined earlier. This oral treatment regimen was continued for several days. The body weight changes of the mice were monitored daily. On Day 5, all the mice in each group were sacrificed for virological and histopathological analyses. […]

caspase-6 = target: T1, caspase-6 (Homo sapiens, UniProt P55212); format: cell-based
T1 construct: endogenous in cells
T1 sequence (P55212 24-293): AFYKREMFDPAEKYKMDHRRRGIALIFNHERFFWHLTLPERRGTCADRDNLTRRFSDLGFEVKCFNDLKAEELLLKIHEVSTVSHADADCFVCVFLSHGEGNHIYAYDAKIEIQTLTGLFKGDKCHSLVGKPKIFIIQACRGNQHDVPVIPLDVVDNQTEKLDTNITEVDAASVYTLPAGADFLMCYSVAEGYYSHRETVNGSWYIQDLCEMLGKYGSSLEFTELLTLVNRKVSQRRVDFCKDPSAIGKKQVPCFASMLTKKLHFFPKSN

HCoV-OC43 [2] = test: microbe, parasite or virus in culture; format: cell-based

O=C(CC(=O)c1ccccc1)c1ccccc1 [DBM, dibenzoylmethane]
Viral RNA copies (log scale), Brain (HCoV-OC43 [1]; DBM 100 mpk oral QD, Day 5): 10.75 and 11.25 and 9.46 and 11.43 and 10.91 and 11.34
Viral RNA copies (log scale), Kidney (HCoV-OC43 [1]; DBM 100 mpk oral QD, Day 5): 4.46 and 4.97 and 5.51 and 4.16 and 5.82 and 6.00
Viral RNA copies (log scale), Lung (HCoV-OC43 [1]; DBM 100 mpk oral QD, Day 5): 5.86 and 6.10 and 6.32 and 5.21 and 6.78 and 7.01
Viral RNA copies (log scale), Spinal Cord (HCoV-OC43 [1]; DBM 100 mpk oral QD, Day 5): 6.20 and 7.58 and 5.38 and 6.52 and 6.60 and 6.93
Viral RNA copies (log scale), Brain (HCoV-OC43 [1]; DBM 200 mpk oral QD, Day 5): 11.00 and 7.97 and 8.87 and 10.9 and 11.19
Viral RNA copies (log scale), Kidney (HCoV-OC43 [1]; DBM 200 mpk oral QD, Day 5): 3.29 and 5.31 and 4.03 and 3.52 and 4.72
Viral RNA copies (log scale), Lung (HCoV-OC43 [1]; DBM 200 mpk oral QD, Day 5): 5.84 and 6.05 and 5.32 and 4.74 and 6.24
Viral RNA copies (log scale), Spinal Cord (HCoV-OC43 [1]; DBM 200 mpk oral QD, Day 5): 7.21 and 4.77 and 4.18 and 5.72 and 5.07
weight loss during the experiment (HCoV-OC43 [1]; DBM 500, 200, 100 mpk, VV116 25 mpk): did not experience weight loss
Viral RNA copies (log scale), Brain (HCoV-OC43 [1]; DBM 500 mpk oral QD, Day 5): 7.30 and 7.20 and 10.02 and 9.11
Viral RNA copies (log scale), Kidney (HCoV-OC43 [1]; DBM 500 mpk oral QD, Day 5): 5.15 and 4.76 and 4.30 and 4.17
Viral RNA copies (log scale), Lung (HCoV-OC43 [1]; DBM 500 mpk oral QD, Day 5): 6.62 and 5.77 and 7.8 and 5.49
Viral RNA copies (log scale), Spinal Cord (HCoV-OC43 [1]; DBM 500 mpk oral QD, Day 5): 7.86 and 7.12 and 7.13 and 6.92
reduction of viral RNA copies in organs and tissues compared with the vehicle-treated group (HCoV-OC43 [1]; DBM 500 mpk, Day 5, brain, spinal cord, lungs, kidneys): 1–3 logs
Body weight (Fig4B) (HCoV-OC43 [1]; Diben-100mpk, day 0, individual mice, 100 mg/kg): 106.0 and 99.6 and 102.4 and 92.2 and 88.6 and 111.2
Body weight (Fig4B) (HCoV-OC43 [1]; Diben-100mpk, day 1, individual mice, 100 mg/kg): 104.0 and 113.7 and 124.8 and 125.0 and 120.9 and 107.3
Body weight (Fig4B) (HCoV-OC43 [1]; Diben-100mpk, day 2, individual mice, 100 mg/kg): 129.4 and 142.0 and 134.3 and 116.8 and 125.0 and 145.3
Body weight (Fig4B) (HCoV-OC43 [1]; Diben-100mpk, day 3, individual mice, 100 mg/kg): 151.0 and 158.2 and 143.3 and 162.5 and 135.0 and 139.2
Body weight (Fig4B) (HCoV-OC43 [1]; Diben-100mpk, day 4, individual mice, 100 mg/kg): 155.1 and 164.8 and 182.5 and 163.5 and 153.3 and 179.2
Body weight (Fig4B) (HCoV-OC43 [1]; Diben-100mpk, day 5, individual mice, 100 mg/kg): 154.0 and 147.9 and 188.2 and 194.1
Body weight (Fig4B) (HCoV-OC43 [1]; Diben-200mpk, day 0, individual mice, 200 mg/kg): 111.2 and 88.7 and 105.9 and 107.7 and 103.2 and 83.4
Body weight (Fig4B) (HCoV-OC43 [1]; Diben-200mpk, day 1, individual mice, 200 mg/kg): 125.7 and 104.5 and 114.6 and 120.1 and 114.8 and 89.2
Body weight (Fig4B) (HCoV-OC43 [1]; Diben-200mpk, day 2, individual mice, 200 mg/kg): 114.8 and 130.4 and 137.3 and 125.5 and 125.0 and 98.5
Body weight (Fig4B) (HCoV-OC43 [1]; Diben-200mpk, day 3, individual mice, 200 mg/kg): 132.4 and 107.4 and 150.4 and 128.4 and 109.9 and 143.8
Body weight (Fig4B) (HCoV-OC43 [1]; Diben-200mpk, day 4, individual mice, 200 mg/kg): 124.4 and 149.1 and 155.3 and 166.7 and 150.7 and DIED
Body weight (Fig4B) (HCoV-OC43 [1]; Diben-200mpk, day 5, individual mice, 200 mg/kg): 132.2 and 156.0 and 162.7 and 162.5 and 153.8
Body weight (Fig4B) (HCoV-OC43 [1]; Diben-500mpk, day 0, individual mice, 500 mg/kg): 97.8 (2×) and 95.2 (2×) and 111.0 and 103.1
Body weight (Fig4B) (HCoV-OC43 [1]; Diben-500mpk, day 1, individual mice, 500 mg/kg): 118.9 and 116.3 and 111.0 and 105.7 (2×) and 124.2
Body weight (Fig4B) (HCoV-OC43 [1]; Diben-500mpk, day 2, individual mice, 500 mg/kg): 145.4 and 111.0 and 129.5 (2×) and 97.8 and 116.3
Body weight (Fig4B) (HCoV-OC43 [1]; Diben-500mpk, day 3, individual mice, 500 mg/kg): 118.9 and 169.2 and 132.2 and 108.4 and 102.6 and 148.0
Body weight (Fig4B) (HCoV-OC43 [1]; Diben-500mpk, day 4, individual mice, 500 mg/kg): 150.7 and DIED (2×) and 187.7 and 103.1 and 161.2
Body weight (Fig4B) (HCoV-OC43 [1]; Diben-500mpk, day 5, individual mice, 500 mg/kg): 100.4
viral loads by immunofluorescence staining of organ sections (HCoV-OC43 [1]; HCoV-OC43 nucleocapsid protein): reduced the viral loads
damage caused by viral infection in brain and lung sections (H&E) (HCoV-OC43 [1]; oral DBM): significantly reduced the damage
activity of caspase-6 in treated cells (caspase-6): decrease in the activity of caspase-6
Caspase-6 activity (Fig5J) (caspase-6; time point 0, replicates): 8.2 and 8.1 and 9.0
Caspase-6 activity (Fig5J) (caspase-6; time point 2, replicates): 11.9 and 12.2 and 11.5
Caspase-6 activity (Fig5J) (caspase-6; time point 4, replicates): 16.7 and 15.6 and 16.4
Caspase-6 activity (Fig5J) (caspase-6; time point 6, replicates): 12.2 and 13.5 and 13.6
Caspase-6 activity (Fig5J) (caspase-6; time point 8, replicates): 13.0 and 12.4 and 9.9
resistance of the virus after consecutive passages (HCoV-OC43 [2]; 17 consecutive passages in the presence of DBM): did not develop significant resistance
EC50 (HCoV-OC43 [2]; Betacoronavirus 1, OC43, read-out: EC50 of DBM against HCoV-OC43 passaged with DBM): 850 nM
EC50 (HCoV-OC43 [2]; Betacoronavirus 1, OC43, read-out: EC50 of DBM against HCoV-OC43 passaged with DMSO): 570 nM
viral inhibition (HCoV-OC43 [2]; DBM (virus passaged with DBM), concentration 1.7): 93.4 and 85.2
viral inhibition (HCoV-OC43 [2]; DBM (virus passaged with DBM), concentration 5.0): 99.5
viral inhibition (HCoV-OC43 [2]; column head DMSO (virus passaged with DMSO), concentration 5.0): 100.0
